Literature values in US20090191293A1, “Composition for enhancing immunity and reducing inflammation related to infections” (IOMEDI DEVELOPMENT INTERNATIONAL, SRL, priority 2007, published 2009).

How the values were obtained:
[1] = tested on: NF-κB dependent signaling pathway; conditions: lipopolysaccharide-induced inflammation
[2] = tested on: arachidonic acid inflammatory reactions
[3] = tested on: LPS-Stimulated Monocytes/Macrophages
NF-κB = conditions: treatment of mice
[4] = tested on: intercellular adhesion molecule-1; conditions: activated by TNF-α
[5] = tested on: nuclear factor kappa B (NF-κB); conditions: HL-60-derived neutrophilic cells
[6] = daily supplementation, amounts greater than 100 mg

OC[C@H]1O[C@@H](Oc2cc3c(O)cc(O)cc3[o+]c2-c2ccc(O)c(O)c2)[C@H](O)[C@@H](O)[C@@H]1O [Example C3G, cyanidin-3-glucoside]
NF-κB dependent signaling pathway [1]: inhibit the NF-κB dependent signaling pathway

Oc1cc(O)c2c(c1)O[C@H](c1ccc(O)c(O)c1)[C@H](O)[C@H]2c1c(O)cc(O)c2c1O[C@H](c1ccc(O)c(O)c1)[C@H](O)C2 [Procyanidin B(2)]
arachidonic acid inflammatory reactions [2]: strongly inhibit arachidonic acid inflammatory reactions

CC1=C(/C=C/C(C)=C/C=C/C(C)=C/C(=O)O)C(C)(C)CCC1 [all trans-retinoic acid (atRA), all trans-retinoic acid]
production of IL-10 [3]: enhancing the production of the immune modulating cytokine, IL-10
production of pro-inflammatory cytokines (IL-12 and TNF-α) [3]: lower the production of pro-inflammatory cytokines

C=CCS[S+]([O-])CC=C (stereo not drawn) [allicin]
NF-κB binding to the nucleus (NF-κB): significantly reduced NF-κB binding to the nucleus
TNF-α mediated T cell adhesion to extracellular matrix components and endothelial cells (T cell): inhibition of TNF-α mediated T cell adhesion

C=C1CC[C@@H]2[C@](C)(CO)[C@H](O)CC[C@@]2(C)[C@@H]1C/C=C1/C(=O)OC[C@H]1O [andrographolide]
expression of intercellular adhesion molecule-1 [4]: inhibit expression of intercellular adhesion molecule-1
binding of NF-κB to the DNA [5]: specifically affects the binding of nuclear factor kappa B (NF-κB) to the DNA

O=C1O[C@H]([C@@H](O)CO)C(O)=C1O [ascorbic acid, L-ascorbic acid]
incidence, severity and integrated morbidity of the common cold [6]: lowers the incidence, severity and integrated morbidity of the common cold
